pIC50: −log10 of the molar value. Calls of active or inactive are those of the source. No cut-off for these calls is given here.
Columns and labels:
[1] = tested on: Rattus norvegicus; test: Hemodynamic effect in intravenously dosed Sprague-Dawley rat with ischemia-induced arrhythmia assessed as dose producing 10% reduction in systemic blood pressure; assay type: functional
[2] = tested on: Rattus norvegicus; test: CNS toxicity in iv dosed Sprague-Dawley rat assessed as cumulative convulsion dose; assay type: organism-based; conditions: in vivo
[3] = in vivo; conditions: CD1, mouse, iv
Description: Toxicity in intravenously dosed CD1 mouse

[4] = biological target: T1, A-type voltage-gated potassium channel KCND2 (Rattus norvegicus, UniProt Q63881); test: Inhibition of rat potassium channel Kv4.2 by patch-clamp method
T1 sequence (Q63881 whole entry): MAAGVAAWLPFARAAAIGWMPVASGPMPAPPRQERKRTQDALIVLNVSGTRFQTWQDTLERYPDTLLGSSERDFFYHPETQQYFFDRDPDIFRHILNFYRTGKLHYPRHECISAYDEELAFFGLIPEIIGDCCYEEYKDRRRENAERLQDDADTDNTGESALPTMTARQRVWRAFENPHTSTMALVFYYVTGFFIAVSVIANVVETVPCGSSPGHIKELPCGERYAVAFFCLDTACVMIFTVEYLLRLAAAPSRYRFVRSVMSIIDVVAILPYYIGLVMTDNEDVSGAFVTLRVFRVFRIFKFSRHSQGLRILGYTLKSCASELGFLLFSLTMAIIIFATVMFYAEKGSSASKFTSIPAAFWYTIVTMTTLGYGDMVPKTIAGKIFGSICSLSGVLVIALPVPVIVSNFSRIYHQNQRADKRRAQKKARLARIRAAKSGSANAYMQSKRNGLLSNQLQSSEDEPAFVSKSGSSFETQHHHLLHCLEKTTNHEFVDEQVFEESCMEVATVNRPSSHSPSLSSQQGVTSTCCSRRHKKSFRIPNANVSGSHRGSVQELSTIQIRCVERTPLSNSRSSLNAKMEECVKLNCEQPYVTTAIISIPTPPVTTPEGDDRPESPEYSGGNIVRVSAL

[5] = biological target: Potassium voltage-gated channel subfamily A member 5 (Homo sapiens, UniProt P22460); test: Inhibition of human potassium channel Kv1.5 by patch-clamp method
[6] = species: Canis familiaris; test: Reduction of blood pressure in Mongrel dog vagal atrial fibrillation model; assay type: functional, organism-based; conditions: Canis lupus familiaris
[7] = species: Canis familiaris; test: Reduction of heart rate in Mongrel dog vagal atrial fibrillation model; assay type: functional, organism-based; conditions: Canis lupus familiaris
[8] = tested on: Rattus norvegicus; test: Antiarrhythmic activity in intravenously dosed Sprague-Dawley rat with ischemia-induced arrhythmia; assay type: functional, Heart
[9] = tested on: Rattus norvegicus; test: (§1) Half life in Wistar rat at 17 mg/kg. iv; assay type: ADME, organism-based; design: dose 17 mg/kg, route intravenous; conditions: in vivo
[10] = tested on: Rattus norvegicus; test: (§2) Oral bioavailability in Wistar rat at 34 mg/kg. […]; assay type: ADME, organism-based; conditions: in vivo
[11] = biological target: T2, Potassium voltage-gated channel subfamily B member 1 (Rattus norvegicus, UniProt P15387); test: Inhibition of rat potassium channel Kv2.1 by patch-clamp method
T2 sequence (P15387 whole entry): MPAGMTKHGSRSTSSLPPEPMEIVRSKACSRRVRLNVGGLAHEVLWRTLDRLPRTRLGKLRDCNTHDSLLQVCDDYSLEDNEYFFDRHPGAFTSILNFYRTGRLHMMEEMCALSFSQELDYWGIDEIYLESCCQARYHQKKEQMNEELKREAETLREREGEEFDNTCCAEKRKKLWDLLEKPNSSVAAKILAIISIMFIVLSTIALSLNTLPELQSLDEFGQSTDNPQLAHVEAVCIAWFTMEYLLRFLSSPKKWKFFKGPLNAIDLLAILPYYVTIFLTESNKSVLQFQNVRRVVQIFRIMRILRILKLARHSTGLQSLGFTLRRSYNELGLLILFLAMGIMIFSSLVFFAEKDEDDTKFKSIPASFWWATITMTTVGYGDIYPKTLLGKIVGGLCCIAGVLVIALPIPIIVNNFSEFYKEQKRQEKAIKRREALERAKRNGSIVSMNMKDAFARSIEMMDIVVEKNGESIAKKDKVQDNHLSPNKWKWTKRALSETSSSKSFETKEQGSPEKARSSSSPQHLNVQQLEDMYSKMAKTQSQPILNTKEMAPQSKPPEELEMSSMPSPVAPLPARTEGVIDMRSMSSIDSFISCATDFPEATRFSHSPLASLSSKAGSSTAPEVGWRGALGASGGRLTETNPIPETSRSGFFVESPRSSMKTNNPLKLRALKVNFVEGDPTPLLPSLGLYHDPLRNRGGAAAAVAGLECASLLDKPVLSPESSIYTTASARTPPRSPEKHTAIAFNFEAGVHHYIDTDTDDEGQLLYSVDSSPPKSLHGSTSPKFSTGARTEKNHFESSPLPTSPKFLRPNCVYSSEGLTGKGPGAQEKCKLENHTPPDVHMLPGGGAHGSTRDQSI

[12] = tested on: Rattus norvegicus; test: (§3) Volume of distribution at steady state in Wistar rat at 17 mg/kg. iv; assay type: ADME, organism-based; design: dose 17 mg/kg, route intravenous; conditions: in vivo
[13] = biological target: Sodium channel protein type 5 subunit alpha (Homo sapiens, UniProt Q14524)
Description: Inhibition of human heart sodium channel Nav1.5 by patch-clamp method

[14] = Clearance in Wistar rat at 12 mg/kg. iv; assay type: ADME, organism-based; design: dose 12 mg/kg, route intravenous; conditions: in vivo
[15] = species: Canis familiaris; test: Effect on Mongrel dog sterile pericarditis atrial fibrillation model assessed as dose for conversion of atrial fibrillation to normal sinus rhythm; assay type: functional, Canis lupus familiaris, Cardiac atrium
[16] = Half life in Wistar rat at 12 mg/kg. iv; assay type: ADME, organism-based; design: dose 12 mg/kg, route intravenous; conditions: in vivo
[17] = Oral bioavailability in Wistar rat at 24 mg/kg. […]; assay type: ADME, organism-based; conditions: in vivo
[18] = species: Canis familiaris; test: Effect on Mongrel dog sterile pericarditis atrial fibrillation model assessed as conversion of atrial fibrillation to normal sinus rhythm; assay type: functional, organism-based; conditions: Canis lupus familiaris; Cardiac atrium
[19] = Volume of distribution at steady state in Wistar rat at 12 mg/kg. iv; assay type: ADME, organism-based; design: dose 12 mg/kg, route intravenous; conditions: in vivo, read-out: Vdss
[20] = species: Canis familiaris; test: Effect on Mongrel dog vagal atrial fibrillation model assessed as dose for conversion of atrial fibrillation to normal sinus rhythm; assay type: functional, Canis lupus familiaris, Cardiac atrium
[21] = species: Canis familiaris; test: Effect on Mongrel dog vagal atrial fibrillation model assessed as conversion of atrial fibrillation to normal sinus rhythm; assay type: functional, organism-based; conditions: Canis lupus familiaris; Cardiac atrium
[22] = as §1; assay type: ADME, organism-based; design: dose 17 mg/kg, route intravenous; conditions: Wistar, in vivo
[23] = Clearance in Wistar rat at 17 mg/kg. iv; assay type: ADME, organism-based; design: dose 17 mg/kg, route intravenous; conditions: in vivo
[24] = as §3; assay type: ADME, organism-based; design: dose 17 mg/kg, route intravenous; conditions: Wistar, in vivo, read-out: Vdss
[25] = as §2; assay type: ADME, organism-based; conditions: Wistar, in vivo, oral

Chain of Sodium channel protein type 5 subunit alpha (Q14524 whole entry): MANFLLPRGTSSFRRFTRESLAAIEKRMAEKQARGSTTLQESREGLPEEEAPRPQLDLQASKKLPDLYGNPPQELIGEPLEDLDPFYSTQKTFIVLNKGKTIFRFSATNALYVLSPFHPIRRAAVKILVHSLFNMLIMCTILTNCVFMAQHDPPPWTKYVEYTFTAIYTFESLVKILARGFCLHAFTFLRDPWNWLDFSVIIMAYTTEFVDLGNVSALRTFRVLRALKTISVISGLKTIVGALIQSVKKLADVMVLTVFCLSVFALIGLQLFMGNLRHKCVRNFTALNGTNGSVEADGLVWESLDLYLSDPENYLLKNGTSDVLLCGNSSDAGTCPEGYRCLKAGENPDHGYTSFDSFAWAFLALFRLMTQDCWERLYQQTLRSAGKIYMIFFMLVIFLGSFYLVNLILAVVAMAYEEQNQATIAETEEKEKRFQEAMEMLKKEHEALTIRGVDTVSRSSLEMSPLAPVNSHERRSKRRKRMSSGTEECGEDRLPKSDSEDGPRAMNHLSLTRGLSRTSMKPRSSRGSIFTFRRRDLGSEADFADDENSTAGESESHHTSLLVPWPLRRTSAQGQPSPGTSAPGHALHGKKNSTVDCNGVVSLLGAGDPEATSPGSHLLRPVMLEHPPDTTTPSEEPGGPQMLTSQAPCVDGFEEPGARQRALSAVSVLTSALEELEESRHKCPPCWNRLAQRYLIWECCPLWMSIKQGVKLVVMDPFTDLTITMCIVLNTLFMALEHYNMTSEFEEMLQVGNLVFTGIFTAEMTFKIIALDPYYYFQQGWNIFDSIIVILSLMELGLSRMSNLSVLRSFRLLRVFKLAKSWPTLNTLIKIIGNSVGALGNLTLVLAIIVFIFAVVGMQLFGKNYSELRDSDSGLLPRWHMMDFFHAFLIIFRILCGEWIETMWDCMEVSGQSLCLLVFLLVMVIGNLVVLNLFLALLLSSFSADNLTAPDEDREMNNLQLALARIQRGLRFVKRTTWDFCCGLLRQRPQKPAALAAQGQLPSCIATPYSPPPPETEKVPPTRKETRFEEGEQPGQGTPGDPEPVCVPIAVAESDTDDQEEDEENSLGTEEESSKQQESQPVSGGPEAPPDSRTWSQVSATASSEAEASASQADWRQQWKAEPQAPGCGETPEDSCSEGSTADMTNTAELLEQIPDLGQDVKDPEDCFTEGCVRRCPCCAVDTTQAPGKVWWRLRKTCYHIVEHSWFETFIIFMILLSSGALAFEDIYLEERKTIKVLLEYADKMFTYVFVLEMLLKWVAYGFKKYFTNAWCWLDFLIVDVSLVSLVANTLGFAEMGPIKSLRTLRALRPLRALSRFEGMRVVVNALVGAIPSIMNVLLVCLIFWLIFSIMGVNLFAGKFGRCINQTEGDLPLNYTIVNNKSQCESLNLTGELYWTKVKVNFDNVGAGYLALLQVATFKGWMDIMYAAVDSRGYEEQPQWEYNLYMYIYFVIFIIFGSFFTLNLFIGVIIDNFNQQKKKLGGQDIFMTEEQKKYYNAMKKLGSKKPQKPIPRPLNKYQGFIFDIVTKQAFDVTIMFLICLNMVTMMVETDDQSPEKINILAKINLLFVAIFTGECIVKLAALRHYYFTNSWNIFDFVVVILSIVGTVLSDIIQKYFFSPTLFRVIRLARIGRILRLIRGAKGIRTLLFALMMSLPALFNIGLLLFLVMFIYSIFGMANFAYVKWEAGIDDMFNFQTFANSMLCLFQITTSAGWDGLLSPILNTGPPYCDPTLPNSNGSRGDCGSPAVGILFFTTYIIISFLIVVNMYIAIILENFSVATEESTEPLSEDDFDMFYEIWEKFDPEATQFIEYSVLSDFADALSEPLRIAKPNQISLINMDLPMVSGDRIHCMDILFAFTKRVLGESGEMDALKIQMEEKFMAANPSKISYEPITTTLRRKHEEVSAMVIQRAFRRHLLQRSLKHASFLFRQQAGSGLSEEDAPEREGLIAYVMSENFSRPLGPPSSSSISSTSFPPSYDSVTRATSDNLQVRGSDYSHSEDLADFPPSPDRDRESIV
Chain of Potassium voltage-gated channel subfamily A member 5 (P22460 whole entry): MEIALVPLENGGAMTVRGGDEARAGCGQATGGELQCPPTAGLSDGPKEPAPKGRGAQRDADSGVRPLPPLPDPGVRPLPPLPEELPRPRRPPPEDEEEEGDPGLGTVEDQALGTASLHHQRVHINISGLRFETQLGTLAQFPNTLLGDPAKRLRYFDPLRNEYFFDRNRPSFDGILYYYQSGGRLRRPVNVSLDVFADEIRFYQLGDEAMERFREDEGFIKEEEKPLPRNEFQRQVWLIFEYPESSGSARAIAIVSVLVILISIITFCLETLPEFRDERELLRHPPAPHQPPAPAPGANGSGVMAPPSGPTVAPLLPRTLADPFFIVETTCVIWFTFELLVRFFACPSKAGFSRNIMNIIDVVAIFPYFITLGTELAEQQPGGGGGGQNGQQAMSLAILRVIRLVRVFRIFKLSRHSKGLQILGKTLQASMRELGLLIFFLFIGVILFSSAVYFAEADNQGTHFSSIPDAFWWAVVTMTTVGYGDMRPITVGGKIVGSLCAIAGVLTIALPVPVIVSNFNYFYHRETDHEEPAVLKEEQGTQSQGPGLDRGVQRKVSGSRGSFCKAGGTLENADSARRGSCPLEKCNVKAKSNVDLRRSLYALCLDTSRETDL

SMILES | Activity [2] [µmol/kg] | LD50 [3] [µmol/kg] | pIC50 [4] | pIC50 [5] | Activity [6] | Activity [7] | ED50 [8] [µmol/kg/min] | pIC50 [11] | pIC50 [13] | also measured
CCCCc1oc2ccccc2c1C(=O)c1cc(I)c(OCCN(CC)CC)c(I)c1 [AMIODARONE] |  |  |  |  |  |  |  |  |  | Activity [1]: 4 µmol/kg/min
O=C(NCC1CCCCN1)c1cc(OCC(F)(F)F)ccc1OCC(F)(F)F (stereo not drawn) [FLECAINIDE] | 113 | 20 | 5.00 | 4.29 |  |  |  |  |  | 
O=C1CCN([C@@H]2CCCC[C@H]2OCCc2cccc3ccccc23)C1 (stereo in doubt; 26) [listing 1 of 2 here] |  |  |  |  | inactive | inactive |  |  |  | 
CCN(CC)CC(=O)Nc1c(C)cccc1C [LIDOCAINE] | 190 |  | 2.92 | 2.66 |  |  | 4.5 |  |  | 
O=C1CCN([C@@H]2CCCC[C@H]2OCCc2cccc3ccccc23)C1 (stereo in doubt; 40) | 193 |  | 4.96 | 5.23 |  |  | 1.2 | 5.22 | 4.96 | t1/2 [9]: 3.8 h; F [10]: 6%; Vdss [12]: 8.3 L/kg
Clc1ccc(CCO[C@@H]2CCCC[C@H]2N2CCOCC2)cc1Cl | 118 | 228 | 4.96 | 5.44 | inactive | inactive | 1.5 | 5.62 | 4.82 | clearance [14]: 48.5 mL/min/kg; Activity [15]: 10 µmol/kg; half-life [16]: 4.5 h; bioavailability [17]: 7%; Activity [18]: Active; Vd [19]: 19 L/kg; Activity [20]: 17 µmol/kg; Activity [21]: Active
c1ccc2c(CCO[C@@H]3CCCC[C@H]3N3CCOCC3)cccc2c1 | 93 | 42 | 4.77 | 5.89 | inactive | inactive | 0.8 | 5.49 | 5.40 | clearance [14]: 50.1 mL/min/kg; Activity [15]: 8 µmol/kg; half-life [16]: 6.5 h; bioavailability [17]: 4%; Activity [18]: Active; Vd [19]: 29 L/kg
O=C1CCN([C@@H]2CCCC[C@H]2OCCc2cccc3ccccc23)C1 (stereo in doubt; 26) [listing 2 of 2 here] | 225 | 227 | 5.05 | 5.37 |  |  | 0.4 | 5.55 | 4.60 | half-life [22]: 6.3 h; clearance [23]: 38.7 mL/min/kg; F [10]: 58%; Vd [24]: 4.5 L/kg
O=C1CCN([C@H]2CCCC[C@@H]2OCCc2cccc3ccccc23)C1 | 150 |  | 5.05 | 5.11 |  |  | 1.9 | 5.10 | 4.89 | half-life [22]: 1 h; clearance [23]: 30.2 mL/min/kg; bioavailability [25]: 32%; Vd [24]: 2.6 L/kg

Source: ChEMBL document CHEMBL1143695, “Synthesis and biological studies of novel 2-aminoalkylethers as potential antiarrhythmic agents for the conversion of atrial fibrillation” (J Med Chem, 2007)
